# Test results reported in patent publication US12384776B2, “Compounds and uses thereof” (Foghorn Therapeutics Inc., priority 2019, dated 2025).
# Target: Nanoluciferase-BRD9 fusion protein (3×FLAG-NLuc-BRD9) in SYO-1 cells (Homo sapiens (Human), UniProt Q9H8M2)
# Assay: SYO1 BRD9 NanoLuc degradation assay
# Type: cell-based
# Settings: SYO-1 cells expressing 3×FLAG-NLuc-BRD9, 6 hours incubation, top dose 1 μM
# In short: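 Degradation read as loss of NLuc signal after 6 h compound exposure (1 μM top final, 3-fold steps, 10 points, duplicates) in SYO-1 cells stably carrying 3×FLAG-NLuc-BRD9. Signal normalised between DMSO-treated cells and cells given 1 μM of a known BRD9 degrader.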
# Nanoluciferase-BRD9 fusion protein (3×FLAG-NLuc-BRD9) in SYO-1 cells, sequence (Q9H8M2 whole entry, the tested form may be a part): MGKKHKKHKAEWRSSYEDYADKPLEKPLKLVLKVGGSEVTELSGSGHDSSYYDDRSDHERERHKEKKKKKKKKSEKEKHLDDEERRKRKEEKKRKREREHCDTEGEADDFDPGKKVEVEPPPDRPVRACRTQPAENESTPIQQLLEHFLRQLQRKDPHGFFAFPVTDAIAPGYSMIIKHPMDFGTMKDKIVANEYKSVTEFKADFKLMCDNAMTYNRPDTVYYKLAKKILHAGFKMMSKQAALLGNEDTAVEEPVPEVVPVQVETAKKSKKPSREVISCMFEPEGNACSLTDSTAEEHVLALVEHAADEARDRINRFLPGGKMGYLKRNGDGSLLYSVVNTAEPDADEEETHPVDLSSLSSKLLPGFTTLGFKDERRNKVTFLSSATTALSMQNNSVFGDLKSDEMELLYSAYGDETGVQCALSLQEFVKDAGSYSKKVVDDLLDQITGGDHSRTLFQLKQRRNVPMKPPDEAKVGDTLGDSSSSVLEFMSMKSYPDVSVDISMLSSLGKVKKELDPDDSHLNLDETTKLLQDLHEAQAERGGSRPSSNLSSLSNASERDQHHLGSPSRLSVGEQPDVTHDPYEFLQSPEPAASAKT
row,Structure (SMILES),IC50
1,CNC(=O)N1CCc2c(-c3cc(OC)c(CN4CCC(C(C)N5CCC6(CC5)CC(Oc5ccc7c(c5)C(=O)N(C5CCC(=O)NC5=O)C7=O)C6)CC4)c(OC)c3)cn(C)c(=O)c2C1 (stereo not drawn) [Compound D128],< 10 nM
2,COc1cc(-c2cn(C)c(=O)c3c2CCN(C(=O)NC2CCC4(CCN(CCOc5ccc6c(c5)C(=O)N(C5CCC(=O)NC5=O)C6=O)C4)C2)C3)cc(OC)c1CN(C)C (stereo not drawn) [Compound D215],100 to 1000 nM
3,COc1cc(-c2cn(C)c(=O)c3c2CCN(C(=O)NCCCN2CC4(CCN(c5ccc6c(c5)C(=O)N(C5CCC(=O)NC5=O)C6=O)CC4)C2)C3)cc(OC)c1CN(C)C (stereo not drawn) [Compound D238],10 to 100 nM
4,CNC(=O)N1CCc2c(-c3cc(OC)c(CN4CCC(CN(C)C5CC(Oc6ccc7c(c6)C(=O)N(C6CCC(=O)NC6=O)C7=O)C5)CC4)c(OC)c3)cn(C)c(=O)c2C1 (stereo not drawn) [Compound D149],< 10 nM
5,COc1cc(-c2cn(C)c(=O)c3c2CCN(C(=O)NCCCN2CCC4C2CN4c2ccc4c(c2)C(=O)N(C2CCC(=O)NC2=O)C4=O)C3)cc(OC)c1CN(C)C (stereo not drawn) [Compound D260],10 to 100 nM
6,COc1cc(-c2cn(C)c(=O)c3c2CCN(C(=O)NCCCCCCCCNc2cccc4nc(C)n(C5CCC(=O)NC5=O)c(=O)c24)C3)cc(OC)c1CN(C)C (stereo not drawn) [Compound D291],10 to 100 nM
7,COc1cc(-c2cn(C)c(=O)c3c2CCN(C(=O)NCCN2CCC4CCN(c5ccc6c(c5)C(=O)N(C5CCC(=O)NC5=O)C6=O)C4C2)C3)cc(OC)c1CN(C)C (stereo not drawn) [Compound D188],100 to 1000 nM
8,COc1cc(-c2cn(C)c(=O)c3c2CCN(C(=O)NC2CCC4(CCN(CCCOc5ccc6c(c5)C(=O)N(C5CCC(=O)NC5=O)C6=O)C4)C2)C3)cc(OC)c1CN(C)C (stereo not drawn) [Compound D250],100 to 1000 nM
9,COc1cc(-c2cn(C)c(=O)c3c2CCN(C(=O)NC2CC4(C2)CN(CCCOc2ccc5c(c2)C(=O)N(C2CCC(=O)NC2=O)C5=O)C4)C3)cc(OC)c1CN(C)C (stereo not drawn) [Compound D263],100 to 1000 nM
10,CNC(=O)N1CCc2c(-c3cc(OC)c(CN4CCC(C(F)(F)CN5CCN(c6ccc7c(c6)C(=O)N(C6CCC(=O)NC6=O)C7=O)CC5)CC4)c(OC)c3)cn(C)c(=O)c2C1 (stereo not drawn) [Compound D154],< 10 nM
11,[2H]C([2H])([2H])NC(=O)N1CCc2c(-c3cc(OC)c(CN4CCC(CN5CCC6(CC5)CC(Oc5ccc7c(c5)C(=O)N(C5CCC(=O)NC5=O)C7=O)C6)CC4)c(OC)c3)cn(C)c(=O)c2C1 (stereo not drawn) [Compound D47],< 10 nM
12,CNC(=O)N1CCc2c(-c3cc(OC)c(CN4CCC(CCN(C)C5CCN(c6ccc7c(c6)C(=O)N(C6CCC(=O)NC6=O)C7=O)C5)CC4)c(OC)c3)cn(C)c(=O)c2C1 (stereo not drawn) [Compound D197],< 10 nM
13,CNC(=O)N1CCc2c(-c3cc(OC)c(CN4CCC(CCN5CCN(c6c(F)cc7c(c6F)C(=O)N(C6CCC(=O)NC6=O)C7=O)CC5)CC4)c(OC)c3)cn(C)c(=O)c2C1 (stereo not drawn) [Compound D78],< 10 nM
14,CNC(=O)N1CCc2c(-c3cc(OC)c(CN4CCN(c5nn(C6CCC(=O)NC6=O)c(=O)n5C)CC4)c(OC)c3)cn(C)c(=O)c2C1 (stereo not drawn) [Compound D62],≥ 1000 nM
15,CNC(=O)N1CCc2c(-c3cc(OC)c(CN4CC(N(C)c5ccc6c(c5)C(=O)N(C5CCC(=O)NC5=O)C6)C4)c(OC)c3)cn(C)c(=O)c2C1 (stereo not drawn) [Compound D53],10 to 100 nM
16,CNC(=O)N1CCc2c(-c3cc(OC)c(CN4CCN(CC5CCN(c6ccc7c(c6)C(=O)N(C6CCC(=O)NC6=O)C7)CC5)CC4)c(OC)c3)cn(C)c(=O)c2C1 (stereo not drawn) [Compound D40],< 10 nM
17,COc1cc(-c2cn(C)c(=O)c3c2CCN(C(=O)NCC2CC4(C2)CN(c2ccc5c(c2)C(=O)N(C2CCC(=O)NC2=O)C5=O)C4)C3)cc(OC)c1CN(C)C (stereo not drawn) [Compound D115],< 10 nM
18,[2H]C([2H])([2H])n1cc(-c2cc(OC)c(CN3CCC(CN4CCC5(CC4)CC(Oc4ccc6c(c4)C(=O)N(C4CCC(=O)NC4=O)C6=O)C5)CC3)c(OC)c2)c2c(c1=O)CN(C(=O)NC)CC2 (stereo not drawn) [Compound D44],< 10 nM
19,COc1cc(-c2cn(C)c(=O)c3c2CCN(C(=O)NC2CC4(CCN(CCCOc5ccc6c(c5)C(=O)N(C5CCC(=O)NC5=O)C6=O)C4)C2)C3)cc(OC)c1CN(C)C (stereo not drawn) [Compound D262],100 to 1000 nM
20,CNC(=O)N1CCc2c(-c3cc(OC)c(CN4CC(C(C)N5CCC6(CC5)CN(c5ccc7c(c5)C(=O)N(C5CCC(=O)NC5=O)C7)C6)C4)c(OC)c3)cn(C)c(=O)c2C1 (stereo not drawn) [Compound D52],< 10 nM
21,CNC(=O)N1CCc2c(-c3cc(OC)c(CN4CCC(CCN5Cc6cc7c(cc6C5)C(=O)N(C5CCC(=O)NC5=O)C7=O)CC4)c(OC)c3)cn(C)c(=O)c2C1 (stereo not drawn) [Compound D179],< 10 nM

# Same assay, conditions: SYO-1 cells, 6 hours, Table 6A
row,Structure (SMILES),IC50
1,"COc1cc(-c2cn(C)c(=O)c3c2CCN(C(=O)NCCN(C)CCNc2cccc4c2C(=O)N(C2CCC(=O)NC2=O)C4=O)C3)cc(OC)c1CN(C)C (stereo not drawn) [Compound D6, 5-[4-[(dimethylamino)methyl]-3,5-dimethoxyphenyl]-N-[2-[(2-[[2-(2,6-dioxopiperidin-3-yl)-1,3-dioxoisoindol-4-yl]amino]ethyl)(methyl)amino]ethyl]-7-methyl-8-oxo-3,4-dihydro-1H-2,7-naphthyridine-2-carboxamide]",> 100 nM
2,"CNC(=O)N1CCc2c(-c3cc(OC)c(CN(C)CC(=O)NCCOCCOc4cccc5c4C(=O)N(C4CCC(=O)NC4=O)C5=O)c(OC)c3)cn(C)c(=O)c2C1 (stereo not drawn) [Compound D13, 5-(4-[[([[2-(2-[[2-(2,6-dioxopiperidin-3-yl)-1,3-dioxoisoindol-4-yl]oxy]ethoxy)ethyl]carbamoyl]methyl)(methyl)amino]methyl]-3,5-dimethoxyphenyl)-N,7-dimethyl-8-oxo-3,4-dihydro-1H-2,7-naphthyridine-2-carboxamide]",> 1000 nM
3,"COc1cc(-c2cn(C)c(=O)c3c2CCN(C(=O)NCCCCCCCCNC(=O)COc2cccc4c2C(=O)N(C2CCC(=O)NC2=O)C4=O)C3)cc(OC)c1CN(C)C (stereo not drawn) [Compound D10, 5-(4-((dimethylamino)methyl)-3,5-dimethoxyphenyl)-N-(8-(2-((2-(2,6-dioxopiperidin-3-yl)-1,3-dioxoisoindolin-4-yl)oxy)acetamido)octyl)-7-methyl-8-oxo-3,4,7,8-tetrahydro-2,7-naphthyridine-2 (1H)-carboxamide formic acid]",> 100 nM

# Same assay, conditions: SYO-1 cells, 6 hours, Table 6C
row,Structure (SMILES),IC50
1,[2H]C([2H])([2H])n1cc(-c2cc(OC)c(CN3[C@H](C)CN(CCC4CCN(c5ccc6c(c5)CN(C5CCC(=O)NC5=O)C6=O)CC4)C[C@H]3C)c(OC)c2)c2c(c1=O)CN(C(=O)NC)CC2 (stereo partly drawn) [Compound D318],< 10 nM
2,COc1cc(-c2cn(C)c(=O)c3c2CCN(C(=O)NCC(F)F)C3)cc(OC)c1CN1CCN(CCC2CCN(c3ccc4c(c3)C(=O)N(C3CCC(=O)NC3=O)C4)CC2)CC12CCC2 (stereo not drawn) [Compound D333],< 10 nM
3,CNC(=O)N1CCc2c(-c3cc(OC)c(CN4CC(C(N5CCC6(CC5)CN(c5ccc7c(c5)C(=O)N(C5CCC(=O)NC5=O)C7)C6)C(F)(F)F)C4)c(OC)c3)cn(C)c(=O)c2C1 (stereo not drawn) [Compound D334],< 10 nM
4,COc1cc(-c2cn(C)c(=O)c3c2CCN(C(=O)NCC(F)F)C3)cc(OC)c1CN1CCN(CCC2CCN(c3ccc4c(c3)C(=O)N(C3CCC(=O)NC3=O)C4)CC2)CC12CC2 (stereo not drawn) [Compound D312],< 10 nM
5,CNC(=O)N1CCc2c(-c3cc(OC)c(CN4CCC(CCN5C(C)CC(c6ccc7c(c6)C(=O)N(C6CCC(=O)NC6=O)C7=O)CC5C)CC4)c(OC)c3)cn(C)c(=O)c2C1 (stereo not drawn) [Compound D342],< 10 nM
6,CNC(=O)N1CCc2c(-c3cc(OC)c(CN4[C@H](C)CN(CCC5CCN(c6ccc7c(c6)C(=O)N(C6CCC(=O)NC6=O)C7)CC5)C[C@H]4C)c(OC)c3)cn(C)c(=O)c2C1 (stereo partly drawn) [Compound D326],< 10 nM
